Data as given in PubChem BioAssay AID256 (DTP/NCI, 2004).
“And” between values parts separate entries of the source, which are not always exact repeats. Equal entries are not always repeated. Inconclusive results and toxic doses are left out. The calls were made as follows: active = survival T/C of 150% or more; inactive = T/C below 125% in these data.

Test system: CD2F1 mice, L1210 leukemia ip, survival T/C
Assay: NCI In Vivo Anticancer Drug Screen. Data for tumor model L1210 Leukemia (intraperitoneal) in CD2F1 (CDF1) mice
Details: higher = longer survival
Procedure, shortened: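 Implant tumor; dose compound or vehicle; measure endpoint in both groups; report treated divided by control.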

[1] = endpoint: mean survival time, dose: 50.0 mg/kg/injection, schedule: Q01DX009 (ip), vehicle: Klucel (hydroxypropylcellulose) (HPC)
[2] = endpoint: mean survival time, dose: 100.0 mg/kg/injection, schedule: Q01DX009 (ip), vehicle: Klucel (hydroxypropylcellulose) (HPC)
[3] = endpoint: mean survival time, dose: 200.0 mg/kg/injection, schedule: Q01DX009 (ip), vehicle: Klucel (hydroxypropylcellulose) (HPC)
[4] = endpoint: mean survival time, dose: 100.0 mg/kg/injection, schedule: Q01DX001 (ip), vehicle: saline with Tween-80
[5] = endpoint: mean survival time, dose: 200.0 mg/kg/injection, schedule: Q01DX001 (ip), vehicle: saline with Tween-80
[6] = endpoint: mean survival time, dose: 400.0 mg/kg/injection, schedule: Q01DX001 (ip), vehicle: saline with Tween-80
[7] = endpoint: mean survival time, dose: 100.0 mg/kg/injection, schedule: Q04DX002 (ip), vehicle: saline with Tween-80
[8] = endpoint: mean survival time, dose: 200.0 mg/kg/injection, schedule: Q04DX002 (ip), vehicle: saline with Tween-80
[9] = endpoint: mean survival time, dose: 100.0 mg/kg/injection, schedule: Q04DX003 (ip), vehicle: saline with Tween-80
[10] = endpoint: mean survival time, dose: 200.0 mg/kg/injection, schedule: Q04DX003 (ip), vehicle: saline with Tween-80
[11] = endpoint: mean survival time, dose: 400.0 mg/kg/injection, schedule: Q04DX003 (ip), vehicle: saline with Tween-80
[12] = endpoint: mean survival time, dose: 25.0 mg/kg/injection, schedule: Q01DX009 (ip), vehicle: saline with Tween-80
[13] = endpoint: mean survival time, dose: 50.0 mg/kg/injection, schedule: Q01DX009 (ip), vehicle: saline with Tween-80
[14] = endpoint: mean survival time, dose: 100.0 mg/kg/injection, schedule: Q01DX009 (ip), vehicle: saline with Tween-80
[15] = endpoint: mean survival time, dose: 100.0 mg/kg/injection, schedule: Q01DX001 (ip), vehicle: saline
[16] = endpoint: mean survival time, dose: 200.0 mg/kg/injection, schedule: Q01DX001 (ip), vehicle: saline
[17] = endpoint: mean survival time, dose: 5.0 mg/kg/injection, schedule: Q01DX009 (ip), vehicle: saline with Tween-80
[18] = endpoint: mean survival time, dose: 400.0 mg/kg/injection, schedule: Q01DX001 (ip), vehicle: saline
[19] = endpoint: mean survival time, dose: 5.0 mg/kg/injection, schedule: Q01DX001 (ip), vehicle: saline
[20] = endpoint: mean survival time, dose: 10.0 mg/kg/injection, schedule: Q01DX001 (ip), vehicle: saline
[21] = endpoint: mean survival time, dose: 20.0 mg/kg/injection, schedule: Q01DX001 (ip), vehicle: saline
[22] = endpoint: mean survival time, dose: 200.0 mg/kg/injection, schedule: Q01DX009 (ip), vehicle: saline with Tween-80
[23] = endpoint: mean survival time, dose: 6.25 mg/kg/injection, schedule: Q01DX009 (ip), vehicle: saline with Tween-80
[24] = endpoint: mean survival time, dose: 12.5 mg/kg/injection, schedule: Q01DX009 (ip), vehicle: saline with Tween-80

Measured: T/C

Cn1c2nc3ccccc3c-2nc2ccccc21
inactive: endpoint: mean survival time, dose: 1.56 mg/kg/injection, schedule: Q01DX009 (ip), vehicle: water 100 % of control | endpoint: mean survival time, dose: 3.13 mg/kg/injection, schedule: Q01DX009 (ip), vehicle: water 93 % of control | endpoint: mean survival time, dose: 6.25 mg/kg/injection, schedule: Q01DX009 (ip), vehicle: water 88 % of control | endpoint: mean survival time, dose: 12.5 mg/kg/injection, schedule: Q01DX009 (ip), vehicle: water 89 % of control | endpoint: mean survival time, dose: 25.0 mg/kg/injection, schedule: Q01DX009 (ip), vehicle: Klucel (hydroxypropylcellulose) (HPC) 101 % of control | endpoint: mean survival time, dose: 25.0 mg/kg/injection, schedule: Q01DX009 (ip), vehicle: water 86 % of control and 89 % of control | [1] 103 % of control | [2] 105 % of control | [3] 95 % of control

c1ccc(C2=C(c3ccccn3)N=c3ccccc3=c3ccccc3=N2)nc1
inactive: [4] 101 % of control | [5] 111 % of control | [6] 93 % of control

OC1C2COC(O2)C(O)C1O (stereo not drawn) (tested in a mixture with another compound)
inactive: endpoint: mean survival time, dose: 100.0 mg/kg/injection, schedule: Q01DX009 (ip), vehicle: saline 93 % of control | endpoint: mean survival time, dose: 200.0 mg/kg/injection, schedule: Q01DX009 (ip), vehicle: saline 91 % of control | endpoint: mean survival time, dose: 400.0 mg/kg/injection, schedule: Q01DX009 (ip), vehicle: saline 91 % of control

O=S(=O)(F)c1ccc(Cl)c(Cl)c1S
inactive: [7] 98 % of control | [8] 98 % of control

CCOC(=O)CC/C=C\Cc1c(OC)c(C)c2c(c1OC(=O)Nc1ccc(C(C)=O)cc1)C(=O)OC2
inactive: [7] 121 % of control

CSc1ncc(Br)c(C(=O)O)n1
inactive: [9] 96 % of control | [10] 96 % of control | [11] 93 % of control

Clc1ccc(Oc2ccccc2)cc1
inactive: [4] 96 % of control | [5] 86 % of control | [6] 91 % of control

CCOC(=O)c1cc(C)[nH]c(=O)c1C#N
inactive: [12] 93 % of control | endpoint: mean survival time, dose: 25.0 mg/kg/injection, schedule: Q04DX003 (ip), vehicle: saline with Tween-80 102 % of control | [13] 96 % of control | endpoint: mean survival time, dose: 50.0 mg/kg/injection, schedule: Q04DX003 (ip), vehicle: saline with Tween-80 102 % of control | [14] 93 % of control | [9] 98 % of control

CCC[CH2][Sn]1([CH2]CCC)[O]C(=O)C2CC=CCC2C(=O)[O]1 (stereo not drawn)
inactive: [15] 102 % of control | [16] 104 % of control

O=C1CCC2(C=C(Br)C(=O)C(Br)=C2)O1
inactive: [17] 98 % of control | endpoint: mean survival time, dose: 5.0 mg/kg/injection, schedule: Q04DX003 (ip), vehicle: saline with Tween-80 103 % of control | endpoint: mean survival time, dose: 10.0 mg/kg/injection, schedule: Q04DX003 (ip), vehicle: saline with Tween-80 105 % of control | endpoint: mean survival time, dose: 20.0 mg/kg/injection, schedule: Q04DX003 (ip), vehicle: saline with Tween-80 101 % of control

O=C(Nc1cccc([N+](=O)[O-])c1)N(c1ccccc1)c1ccccc1
inactive: [15] 88 % of control | [16] 94 % of control | [18] 93 % of control

N#Cc1cc([N+](=O)[O-])ccc1Cl
inactive: [13] 96 % of control | [14] 91 % of control | [9] 105 % of control | [10] 103 % of control

O=NC1C2CCC(C2)C1Cl (stereo not drawn)
inactive: [19] 98 % of control | [20] 97 % of control | [21] 95 % of control

O=C(NNC(=O)c1ccncc1)NS(=O)(=O)c1ccc(Cl)cc1
inactive: [1] 101 % of control | [2] 90 % of control | [3] 97 % of control

Oc1ccc(CC2=NCCc3cc(O)c(O)cc32)cc1O
inactive: [19] 104 % of control | [20] 98 % of control | [21] 98 % of control | endpoint: mean survival time, dose: 40.0 mg/kg/injection, schedule: Q01DX001 (ip), vehicle: saline 100 % of control | endpoint: mean survival time, dose: 80.0 mg/kg/injection, schedule: Q01DX001 (ip), vehicle: saline 102 % of control

O=C1C(Br)=CC(Br)(Br)C=C1Br
inactive: [14] 88 % of control | [22] 91 % of control | endpoint: mean survival time, dose: 400.0 mg/kg/injection, schedule: Q01DX009 (ip), vehicle: saline with Tween-80 86 % of control

NC(=S)/N=C\C(CC(O)C(O)C(O)CO)=N\NC(N)=S (stereo not drawn)
inactive: [23] 96 % of control | [24] 96 % of control | [12] 95 % of control and 100 % of control | [13] 93 % of control and 101 % of control | [14] 101 % of control | [22] 86 % of control

CC(=O)NC1CC(n2cnc3c(=O)[nH]c(N)nc32)OC1C(C)O (stereo not drawn)
inactive: endpoint: median survival time, dose: 12.5 mg/kg/injection, schedule: Q01DX005 (ip), vehicle: distilled water + Tween-80 101 % of control | endpoint: median survival time, dose: 25.0 mg/kg/injection, schedule: Q01DX005 (ip), vehicle: distilled water + Tween-80 102 % of control | endpoint: median survival time, dose: 50.0 mg/kg/injection, schedule: Q01DX005 (ip), vehicle: distilled water + Tween-80 100 % of control | endpoint: median survival time, dose: 100.0 mg/kg/injection, schedule: Q01DX005 (ip), vehicle: distilled water + Tween-80 89 % of control

CC(CC1CC=CCC1)C(=O)c1ccccc1 (stereo not drawn)
inactive: endpoint: mean survival time, dose: 50.0 mg/kg/injection, schedule: Q04DX002 (ip), vehicle: saline with Tween-80 100 % of control | [7] 100 % of control | [8] 93 % of control | endpoint: mean survival time, dose: 400.0 mg/kg/injection, schedule: Q04DX002 (ip), vehicle: saline with Tween-80 89 % of control

CC1(C)C2CC=C(CCCc3ccccc3)C1C2 (stereo not drawn)
inactive: [9] 98 % of control | [10] 93 % of control

CC1Cc2c([nH]c(=O)n(-c3ccccc3)c2=O)O1 (stereo not drawn)
inactive: [15] 103 % of control | [16] 92 % of control | [18] 92 % of control

O=C(Nc1nc2c(ccc3ccccc32)s1)Nc1ccccc1F
inactive: [13] 94 % of control | [14] 97 % of control | [22] 105 % of control

COC(=O)NC1=Nc2ccccc2-c2ccccc2N1
inactive: [9] 101 % of control | [10] 96 % of control | [11] 96 % of control

Nc1ncnc2c1nc(Cl)n2C1OC2COP(=O)(O)OC2C1O (stereo not drawn)
inactive: endpoint: mean survival time, dose: 12.5 mg/kg/injection, schedule: Q01DX005 (ip), vehicle: water 96 % of control | endpoint: mean survival time, dose: 25.0 mg/kg/injection, schedule: Q01DX005 (ip), vehicle: water 100 % of control | endpoint: mean survival time, dose: 50.0 mg/kg/injection, schedule: Q01DX005 (ip), vehicle: water 100 % of control

CC(=O)Nc1ccc(/C=N/NC(=O)CNC(=O)NCc2ccco2)cc1
inactive: [13] 96 % of control | [14] 92 % of control | [22] 94 % of control

O=P1(C(Cl)Cl)OCCCO1
inactive: [15] 103 % of control | [16] 100 % of control | [18] 100 % of control

N#CNC(N)=O
inactive: endpoint: mean survival time, dose: 100.0 mg/kg/injection, schedule: Q01DX009 (ip), vehicle: saline sonified 102 % of control | endpoint: mean survival time, dose: 200.0 mg/kg/injection, schedule: Q01DX009 (ip), vehicle: saline sonified 96 % of control | endpoint: mean survival time, dose: 400.0 mg/kg/injection, schedule: Q01DX009 (ip), vehicle: saline sonified 100 % of control

Nc1ncnc2c1ncn2C1OC(CF)C(O)C1O (stereo not drawn)
inactive: [15] 104 % of control | [16] 98 % of control

O=C(COc1ccccc1)NCc1ccccc1Cl
inactive: [9] 100 % of control | [10] 103 % of control | [11] 91 % of control

COC(=O)C(Br)C1CCCCC1 (stereo not drawn)
inactive: [13] 95 % of control | [14] 102 % of control | [9] 100 % of control | [22] 93 % of control | [10] 102 % of control

CC(C)(C#N)N1CCCCC1
inactive: endpoint: mean survival time, dose: 1.25 mg/kg/injection, schedule: Q01DX009 (ip), vehicle: saline with Tween-80 107 % of control | endpoint: mean survival time, dose: 2.5 mg/kg/injection, schedule: Q01DX009 (ip), vehicle: saline with Tween-80 104 % of control | [17] 98 % of control | endpoint: mean survival time, dose: 5.0 mg/kg/injection, schedule: Q04DX003 (ip), vehicle: saline 101 % of control

CCCCCCCCCCCCCCCOc1ccc(OCCCCCCCCCCCCCC)cc1
inactive: [5] 89 % of control | [6] 88 % of control

CN(C)CCCN=Cc1cc(Cl)ccc1O.CN(C)CCCN=Cc1cc(Cl)ccc1O.[Ni+2]
inactive: [23] 93 % of control | [24] 93 % of control | [12] 100 % of control
